Experimental data as given in PMC5286460 (ACS Omega, 2017).
“Also recorded” adds a separate entry of the source.

Key:
[1] = UV–vis absorption and fluorescence spectroscopy; format: physicochemical; details: 10% DMSO; for λmax abs: 10-15 μM
healthy CD-1 mice = assay: In vivo biodistribution imaging in healthy mice; design: species or system mouse; details: for pancreas specificity / accumulation: systemic administration
[2] = Cell viability by Cell Titer-Blue assay; format: cell-based; details: human, Capan-1 cells
Capan-1 cells [3] = assay: Subcellular colocalization, live cell imaging; format: cell-based, human; details: 0.5 μM, 1 h incubation
Capan-1 cells [4] = assay: Cellular uptake in Capan-1 cells; format: cell-based, human; details: within 30 min of application
[5] = system: pancreas tissue derived from healthy and PDAC mice; assay: Ex vivo staining of pancreas tissue from healthy and PDAC mice; details: PDAC mouse pancreas tissue slides
[6] = system: genetically modified PDAC mice; assay: In vivo biodistribution and ex vivo pathology in PDAC tumor-bearing mice; design: species or system mouse; details: 100 nmol systemic, 1.5 h
[7] = acidic solution pH 1.9, 12.5 mM HCl

Compound	Stokes shift ([1]; pH 7.4 phosphate buffer) [nm]	brightness ([1]; pH 7.4 phosphate buffer)	λmax em ([1]; pH 7.4 phosphate buffer) [nm]	φ (quantum yield) ([1]; pH 7.4 phosphate buffer) [%]	λmax abs ([1]; pH 7.4 phosphate buffer) [nm]	pancreas specificity / accumulation (healthy CD-1 mice)	also measured
COC(=O)c1ccccc1-c1c2ccc(=N)cc-2oc2c1ccc1cccc(N)c12.Cl [Compound 9]	184	25	760	0.18	576		
COC(=O)c1ccccc1-c1c2ccc(=N)cc-2oc2c1ccc1cccc(O)c12.Cl [Compound 3]							Stokes shift [1, 7]: 62 nm; brightness [1, 7]: 226; λmax em [1, 7]: 604 nm; φ (quantum yield) [1, 7]: 1.14%; λmax abs [1, 7]: 542 nm
CN(C)c1ccc2nc3ccc(=[N+](C)C)cc-3sc2c1 [MB, methylene blue, reference compound]						poor penetration into normal pancreas tissue; also recorded: diminished pancreas accumulation	
COC(=O)c1ccccc1C1=c2cc3c4c(c2Oc2c1ccc1cccc(O)c21)CCC[N+]=4CCC3.[Cl-] [Compound 11]							Stokes shift [1, 7]: 39 nm; brightness [1, 7]: 2314; λmax em [1, 7]: 624 nm; φ (quantum yield) [1, 7]: 15.3%; λmax abs [1, 7]: 585 nm
COC(=O)c1ccccc1-c1c2ccc(=[N+](C)C)cc-2oc2c1ccc1cccc(OC)c12.[Cl-] [Compound 6]	38	2094	606	9.32	568		
COC(=O)c1ccccc1C1=c2cc3c4c(c2Oc2c1ccc1cccc(N)c21)CCC[N+]=4CCC3.[Cl-] [Compound 13]	139	85	740	0.66	601	diminished pancreas accumulation	IC50 at 24 h [2]: 26.1 µM; subcellular localization (Capan-1 cells [3]): extensive accumulation in the mitochondria; relative cellular uptake (Capan-1 cells [4]): greatest uptake
COC(=O)c1ccccc1-c1c2ccc(=O)cc-2oc2c1ccc1cccc(N(C)C)c12 [Compound 8]							λmax em ([1]; basic solution pH 12.1, 12.5 mM NaOH): 530 nm
COC(=O)c1ccccc1C1=c2cc3c4c(c2Oc2c1ccc1cccc(OC)c21)CCC[N+]=4CCC3.[Cl-] [Compound 12]	40	2022	622	11.38	582	improved pancreas specificity	ex vivo staining pattern in cancerous tissue [5]: localized in the PDAC-associated ductal epithelial cells; uptake in normal pancreas tissue as compared to MB (healthy CD-1 mice; 100 nmol systemic (MB 120 nmol)): 4 fold; fluorescence SBR in the pancreas vs surrounding organs (healthy CD-1 mice; 4 h time point): highest and most persistent fluorescence SBR in the pancreas; IC50 at 24 h [2]: 17.8 µM; subcellular localization (Capan-1 cells [3]): extensive accumulation in the mitochondria; PDAC-specific fluorescence / accumulation [6]: Significantly more fluorescence; also recorded: significantly higher than that in the surrounding tissues
